Consider 10 compounds from patent US7094869B2, “Low molecular weight peptidomimetic growth hormone secretagogues” (Genentech, Inc., priority 1994, dated 2006).

One experiment concerns the target rat pituitary cells (Rattus norvegicus, UniProt O08725). The conditions noted are these: GH release, 15 min incubation. The essentials: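 Primary rat anterior pituitary cells, cultured three days in DME low glucose/10% FBS, were washed, pre-incubated twice for 15 min, then challenged 15 min with test compounds (DMSO ≤0.1%) at 37 °C. Released GH was measured by two-site ELISA; EC50 came from 4-parameter fits, mean of three to four independent determinations.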

The test system of a further experiment is growth hormone secretion. Put plainly: GHRP induced growth hormone secretion, intravenous administration (Rat IV). Format: in vivo. Particulars: serum GH 10 min after injection; for RAT IV ED50: iv injection. The essentials: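 Female Sprague Dawley rats (24-30 days, 50-90 g) under intraperitoneal pentobarbitone received graded intravenous tail-vein peptide doses in pH 5.0 sodium acetate/mannitol buffer 20 min post-anaesthesia. Blood by cardiac puncture 10 min after dosing; serum GH measured by rat GH ELISA in duplicate.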

[1] abbreviates: read-out: PIT Cell EC50, Table III, formula IV compounds.

Like-named read-outs stand apart in the source and are kept apart here. Non-standard residues stand in square brackets, D forms with d. Residues, ends and D or L forms follow the SMILES beside them. dNMe2Nal = CN[C@H](Cc1ccc2ccccc2c1)C(=O)O; d2Nal = N[C@H](Cc1ccc2ccccc2c1)C(=O)O; βAla = NCCC(=O)O

One may read the EC50 as the concentration at which the effect is half-maximal.

rat pituitary cells, sequence (O08725 whole entry): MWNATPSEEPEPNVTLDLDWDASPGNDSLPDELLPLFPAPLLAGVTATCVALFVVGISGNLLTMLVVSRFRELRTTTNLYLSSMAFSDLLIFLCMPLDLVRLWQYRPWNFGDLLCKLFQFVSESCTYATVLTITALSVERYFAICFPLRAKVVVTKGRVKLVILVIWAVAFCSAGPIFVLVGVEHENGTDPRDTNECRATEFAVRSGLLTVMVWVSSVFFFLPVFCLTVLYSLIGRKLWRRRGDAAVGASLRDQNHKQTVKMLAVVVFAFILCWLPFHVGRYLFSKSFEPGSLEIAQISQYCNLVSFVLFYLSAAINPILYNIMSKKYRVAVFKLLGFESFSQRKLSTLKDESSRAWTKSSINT

`C[C@H](NC(=O)[C@@H](Cc1ccc2ccccc2c1)NC(=O)[C@@H](C)N)C(=O)N[C@@H](Cc1c[nH]c2ccccc12)C(=O)N[C@H](Cc1ccccc1)C(=O)N[C@@H](CCCCN)C(N)=O` [GHRP 2, D Ala-D βNal-Ala-Trp-D Phe-Lys-NH2, reference compound] (H-[dA][d2Nal]AW[dF]K-NH2): the EC50 at rat pituitary cells (read-out: “Pit” Cell EC50, Table II, prior art compounds) came to 1 nM. In addition, the “Rat IV ED50” value in the experiment on growth hormone secretion (Table II, iv tail vein injection, anesthetized weanling female rats) was found to be 0.35 µg.
Turning to `NCCCC[C@H](NC(=O)[C@H](Cc1ccccc1)NC(=O)[C@@H](Cc1ccc2ccccc2c1)NC(=O)[C@@H](Cc1ccc2ccccc2c1)NC(=O)[C@@H](N)Cc1c[nH]cn1)C(N)=O` [H b b F K amide] (H-H[d2Nal][d2Nal]FK-NH2), the concentration giving a half-maximal response (EC50) at rat pituitary cells (setting [1]) came out at 2.4 nM. The “RAT IV ED50” value with growth hormone secretion (Table III) was 15.4 µg.
In the case of `NCCCC[C@H](NC(=O)[C@H](Cc1ccccc1)NC(=O)[C@@H](Cc1c[nH]c2ccccc12)NC(=O)[C@@H](Cc1ccc2ccccc2c1)NC(=O)[C@@H](N)Cc1c[nH]cn1)C(N)=O` [H b w F K amide] (H-H[d2Nal][dW]FK-NH2), at rat pituitary cells (setting [1]), the EC50 worked out at 6.8 nM. Also, the “RAT IV ED50” value in the experiment on growth hormone secretion (Table III) came to 4.2 µg.
For `NCCCC[C@H](NC(=O)[C@H](Cc1ccccc1)NC(=O)[C@@H](Cc1ccc2ccccc2c1)NC(=O)[C@@H](Cc1c[nH]c2ccccc12)NC(=O)[C@@H](N)Cc1c[nH]cn1)C(N)=O` [H w b F K amide] (H-H[dW][d2Nal]FK-NH2) the same measures were 15 nM and 50 µg.
For `NCCCC[C@H](NC(=O)[C@H](Cc1ccccc1)NC(=O)[C@@H](Cc1c[nH]c2ccccc12)NC(=O)[C@@H](Cc1c[nH]c2ccccc12)NC(=O)[C@@H](N)Cc1c[nH]cn1)C(N)=O` [H w w F K amide] (H-H[dW][dW]FK-NH2) the same measures were 25.8 nM and 50 µg.
For `C[C@@H](N)C(=O)N[C@H](Cc1ccc2ccccc2c1)C(=O)N[C@H](Cc1ccc2ccccc2c1)C(=O)N[C@@H](Cc1ccccc1)C(=O)N[C@@H](CCCCN)C(N)=O` [a b b F K amide] (H-[dA][d2Nal][d2Nal]FK-NH2) the same measures were 3.5 nM and 10 µg.
Consider `C[C@@H](N)C(=O)N[C@H](Cc1c[nH]c2ccccc12)C(=O)N[C@H](Cc1c[nH]c2ccccc12)C(=O)N[C@@H](Cc1ccccc1)C(=O)N[C@@H](CCCCN)C(N)=O` [a w w F K amide] (H-[dA][dW][dW]FK-NH2), for which, at rat pituitary cells (setting [1]), the EC50 amounted to 4.1 nM. Besides, the “RAT IV ED50” value with growth hormone secretion (Table III) was determined as 1.47 µg.
In the case of `NCCCNC(=O)[C@H](Cc1ccc2ccccc2c1)NC(=O)[C@H](Cc1ccc2ccccc2c1)NC(=O)[C@H](N)Cc1ccc2ccccc2c1` [b B B ram, DβNal-βNal-βNal-[N-(3-aminopropyl)] amide], on rat pituitary cells (read-out: PIT Cell EC50, Table VI, retroinverso compounds of formula V), the EC50 was found to be 15.2 nM. Further, in the experiment with growth hormone secretion (Table VI), the “RAT IV ED50” value amounted to 100 µg.
`NCCCC[C@H](NC(=O)[C@H](Cc1ccccc1)NC(=O)[C@@H](Cc1ccc2ccccc2c1)NC(=O)[C@@H](Cc1ccc2ccccc2c1)NC(=O)CCN)C(N)=O` [bA b b F K amide] (H-[βAla][d2Nal][d2Nal]FK-NH2): the EC50 at rat pituitary cells (setting [1]) was found to be 4.8 nM. For the same compound, in the experiment with growth hormone secretion (Table III), the “RAT IV ED50” value was determined as 6.7 µg.
The matching figures for `CN[C@H](Cc1ccc2ccccc2c1)C(=O)N[C@H](Cc1ccc2ccccc2c1)C(=O)N[C@@H](Cc1ccccc1)C(=O)N[C@@H](CCCCN)C(N)=O` [nmb b F K amide] (H-[dNMe2Nal][d2Nal]FK-NH2): greater than 100 nM and 1000 µg.
